Experimental data from ChEMBL document CHEMBL3526010, “Pharmacokinetics, biotransformation, and mass balance of edoxaban, a selective, direct factor Xa inhibitor, in humans” (Drug Metab Dispos, 2012).

Tests used:
[1] = Drug excretion in urine of human treated with 60 mg, po of [14C]edoxaban after 168 hrs by radio-HPLC chromatogram analysis; assay type: ADME, organism-based; settings: in vivo
[2] = Drug excretion in feces of human treated with 60 mg, po of [14C]edoxaban after 168 hrs by radio-HPLC chromatogram analysis; assay type: ADME, organism-based; settings: in vivo
Plasma [3] = assay: Cmax in human plasma treated with 60 mg, po of [14C]edoxaban by LC-MS/MS analysis; assay type: ADME, organism-based; set-up: dose 60 mg, route oral; settings: in vivo
Plasma [4] = assay: Tmax in human plasma treated with 60 mg, po of [14C]edoxaban by LC-MS/MS analysis; assay type: ADME, organism-based; settings: in vivo
Plasma [5] = assay: AUC (0 to t) in human plasma treated with 60 mg, po of [14C]edoxaban by LC-MS/MS analysis; assay type: ADME, organism-based; settings: in vivo
Plasma [6] = assay: AUC (0 to infinity) in human plasma treated with 60 mg, po of [14C]edoxaban by LC-MS/MS analysis; assay type: ADME, organism-based; set-up: dose 60 mg, time infinity, route oral; settings: in vivo
Plasma [7] = assay: Terminal elimination half life in human plasma treated with 60 mg, po of [14C]edoxaban by LC-MS/MS analysis; assay type: ADME, organism-based
[8] = Retention time of the compound; assay type: physicochemical
[9] = Elimination half life in human; assay type: ADME, organism-based; settings: in vivo, read-out: beta t1/2 (converted)
Plasma [10] = assay: Cmax in human plasma at 60 mg, po by radio-HPLC chromatogram analysis; assay type: ADME, organism-based; set-up: dose 60 mg, route oral; settings: in vivo
Blood [11] = assay: Cmax in human whole blood at 60 mg, po by radio-HPLC chromatogram analysis; assay type: ADME, organism-based; set-up: dose 60 mg, route oral; settings: in vivo
Plasma [12] = assay: AUC (0 to t) in human plasma at 60 mg, po by radio-HPLC chromatogram analysis; assay type: ADME, organism-based; settings: in vivo
Blood [13] = assay: AUC (0 to t) in human whole blood at 60 mg, po by radio-HPLC chromatogram analysis; assay type: ADME, organism-based; settings: in vivo
Plasma [14] = assay: AUC (0 to infinity) in human plasma at 60 mg, po by radio-HPLC chromatogram analysis; assay type: ADME, organism-based; set-up: dose 60 mg, time infinity, route oral; settings: in vivo
Blood [15] = assay: AUC (0 to infinity) in human whole blood at 60 mg, po by radio-HPLC chromatogram analysis; assay type: ADME, organism-based; set-up: dose 60 mg, time infinity, route oral; settings: in vivo
[16] = Drug metabolism in human assessed as metabolite excretion in feces at 60 mg, po after 168 hrs by radio-HPLC chromatogram analysis; assay type: ADME, organism-based; settings: in vivo
[17] = Cmax in human plasma at 60 mg, po by LC-MS/MS analysis; assay type: ADME, organism-based; set-up: dose 60 mg, route oral
[18] = Tmax in human plasma at 60 mg, po by LC-MS/MS analysis; assay type: ADME, organism-based
[19] = AUC (0 to t) in human plasma at 60 mg, po by LC-MS/MS analysis; assay type: ADME, organism-based
[20] = AUC (0 to infinity) in human plasma at 60 mg, po by LC-MS/MS analysis; assay type: ADME, organism-based; set-up: dose 60 mg, route oral, time infinity
[21] = Terminal elimination half life in human plasma at 60 mg, po by LC-MS/MS analysis; assay type: ADME, organism-based; settings: read-out: beta t1/2 (converted)
Homo sapiens = assay: Toxicity in human assessed as sign of adverse effect at 60 mg, po; assay type: organism-based; settings: in vivo
clinical = settings: human, in vivo

SMILES | Drug excretion [1] | Drug excretion [2] | Cmax (Plasma [3]) | Tmax (Plasma [4]) | AUCt (Plasma [5]) | AUC (Plasma [6]) | beta t1/2 (Plasma [7]) | Retention_time [8] | also measured
CN1CCc2nc(C(=O)N[C@@H]3C[C@@H](C(=O)O)CC[C@@H]3NC(=O)C(=O)Nc3ccc(Cl)cn3)sc2C1 | 1.56% | 1.93% | 22.2 ng/mL | 1.8 h | 145.5 ng·h/mL | 147 ng·h/mL | 8.2 h | 40.84 min | –
CNC(=O)[C@H]1CC[C@H](NC(=O)C(=O)Nc2ccc(Cl)cn2)[C@H](NC(=O)c2nc3c(s2)CN(C)CC3)C1 (stereo in doubt; M8) | – | 0.34% | 0.63 ng/mL | 1.8 h | 3.5 ng·h/mL | 4.41 ng·h/mL | 9 h | 49.97 min | Drug excretion ([1]; BLD = below limit of detection): BLD
CN1CCc2nc(C(=O)N[C@@H]3C[C@@H](C(=O)N(C)C)CC[C@@H]3N)sc2C1 (stereo in doubt; M2) | – | – | – | – | – | – | – | 34.09 min | –
CN(C)C(=O)[C@H]1CC[C@H](NC(=O)C(=O)Nc2ccc(Cl)cn2)[C@H](NC(=O)c2nc3c(s2)C[N+](C)([C@@H]2O[C@H](C(=O)[O-])[C@@H](O)[C@H](O)[C@H]2O)CC3)C1 (stereo partly specified) | – | – | – | – | – | – | – | 38.9 min | –
CN1CCc2nc([14C](=O)N[C@@H]3C[C@@H](C(=O)N(C)C)CC[C@@H]3NC(=O)C(=O)Nc3ccc(Cl)cn3)sc2C1 | – | – | – | – | – | – | – | 54.08 min | half-life [9]: 8 h; Cmax (Plasma [10]): 0.349 ugequiv/ml; Cmax (Blood [11]): 0.352 ugequiv/ml; AUCt (Plasma [12]): 1.683 ugequiv.h/ml; AUCt (Blood [13]): 1.269 ugequiv.h/ml; AUC (Plasma [14]): 1.947 ugequiv.h/ml; AUC (Blood [15]): 1.673 ugequiv.h/ml; Drug excretion [16]: 0.05%; Cmax [17]: 332 ng/mL; Tmax [18]: 0.5 h; AUC(0-t) [19]: 1580 ng·h/mL; AUC(0-inf) [20]: 1600 ng·h/mL; half-life [21]: 7.4 h; Activity (Homo sapiens): Non-toxic; Tmax (clinical): 1 h
CN(C)C(=O)[C@H]1CC[C@H](NC(=O)C(=O)Nc2ccc(Cl)cn2)[C@H](NC(=O)c2nc3c(s2)CNCC3)C1 | 0.45% | 1.66% | 6.99 ng/mL | 1 h | 55.1 ng·h/mL | 56.2 ng·h/mL | 9 h | 46.52 min | –
CN1CCc2nc(C(=O)N[C@@H]3C[C@@H](C(=O)N(C)C)CC[C@@H]3NC(=O)C(=O)O)sc2C1 | 1.85% | – | 14.9 ng/mL | 1.8 h | 94.7 ng·h/mL | 95.8 ng·h/mL | 6.9 h | 25.41 min | Drug excretion ([2]; BLD = below limit of detection): BLD
CN(C)C(=O)[C@H]1CC[C@H](NC(=O)C(=O)Nc2ccc(Cl)cn2)[C@H](NC(=O)c2nc3c(s2)C[N+](C)([O-])CC3)C1 (stereo partly specified) | – | – | – | – | – | – | – | 41.45 min | –
